Experiments:
Assay in all cases: radiometric filter-binding kinase assay, Kinase HotSpot
Conditions in all cases: compound 0.5 µM; ATP 10 µM
ACVR1 (human) = ACVR1 (human) (UniProt Q04771)
AKT1 (human) = AKT1 (human) (UniProt P31749)
AURKB (human) = AURKB (human) (UniProt Q96GD4)
CDC42BPB (human) = CDC42BPB (human) (UniProt Q9Y5S2)
CDK4 CCND1 (human) = CDK4 CCND1 (human) (UniProt P24385+P11802)
CDK4 CCND3 (human) = CDK4 CCND3 (human) (UniProt P30281+P11802)
CDK6 CCND1 (human) = CDK6 CCND1 (human) (UniProt Q00534+P24385)
CHEK2 (human) = CHEK2 (human) (UniProt O96017)
CLK3 (human) = CLK3 (human) (UniProt P49761)
CSNK1D (human) = CSNK1D (human) (UniProt P48730)
DAPK1 (human) = DAPK1 (human) (UniProt P53355)
DCLK2 (human) = DCLK2 (human) (UniProt Q8N568)
EPHA2 (human) = EPHA2 (human) (UniProt P29317)
EPHB3 (human) = EPHB3 (human) (UniProt P54753)
EPHB4 (human) = EPHB4 (human) (UniProt P54760)
ERBB2 (human) = ERBB2 (human) (UniProt P04626)
FER (human) = FER (human) (UniProt P16591)
FYN (human) = FYN (human) (UniProt P06241)
JAK3 JH1 JH2 (human) = JAK3 JH1 JH2 (human) (UniProt P52333)
KDR (human) = KDR (human) (UniProt P35968)
MAP3K14 (human) = MAP3K14 (human) (UniProt Q99558)
MAP3K5 (human) = MAP3K5 (human) (UniProt Q99683)
MAPK11 (human) = MAPK11 (human) (UniProt Q15759)
MAPK12 (human) = MAPK12 (human) (UniProt P53778)
MAPK14 (human) = MAPK14 (human) (UniProt Q16539)
MERTK (human) = MERTK (human) (UniProt Q12866)
MST1R (human) = MST1R (human) (UniProt Q04912)
NEK2 (human) = NEK2 (human) (UniProt P51955)
PAK4 (human) = PAK4 (human) (UniProt O96013)
PDGFRA (human) = PDGFRA (human) (UniProt P16234)
PHKG1 (human) = PHKG1 (human) (UniProt Q16816)
PIM1 (human) = PIM1 (human) (UniProt P11309)
PLK1 (human) = PLK1 (human) (UniProt P53350)
PRKCB1 (human) = PRKCB1 (human) (UniProt P05771)
RIPK2 (human) = RIPK2 (human) (UniProt O43353)
ROCK1 (human) = ROCK1 (human) (UniProt Q13464)
STK17A (human) = STK17A (human) (UniProt Q9UEE5)
TBK1 (human) = TBK1 (human) (UniProt Q9UHD2)
TEC (human) = TEC (human) (UniProt P42680)
TGFBR2 (human) = TGFBR2 (human) (UniProt P37173)
TXK (human) = TXK (human) (UniProt P42681)
[1] = molecular target: TYK2 JH1 catalytic (human) (UniProt P29597)

Sequence of TEC (human) (P42680 whole entry, looked up): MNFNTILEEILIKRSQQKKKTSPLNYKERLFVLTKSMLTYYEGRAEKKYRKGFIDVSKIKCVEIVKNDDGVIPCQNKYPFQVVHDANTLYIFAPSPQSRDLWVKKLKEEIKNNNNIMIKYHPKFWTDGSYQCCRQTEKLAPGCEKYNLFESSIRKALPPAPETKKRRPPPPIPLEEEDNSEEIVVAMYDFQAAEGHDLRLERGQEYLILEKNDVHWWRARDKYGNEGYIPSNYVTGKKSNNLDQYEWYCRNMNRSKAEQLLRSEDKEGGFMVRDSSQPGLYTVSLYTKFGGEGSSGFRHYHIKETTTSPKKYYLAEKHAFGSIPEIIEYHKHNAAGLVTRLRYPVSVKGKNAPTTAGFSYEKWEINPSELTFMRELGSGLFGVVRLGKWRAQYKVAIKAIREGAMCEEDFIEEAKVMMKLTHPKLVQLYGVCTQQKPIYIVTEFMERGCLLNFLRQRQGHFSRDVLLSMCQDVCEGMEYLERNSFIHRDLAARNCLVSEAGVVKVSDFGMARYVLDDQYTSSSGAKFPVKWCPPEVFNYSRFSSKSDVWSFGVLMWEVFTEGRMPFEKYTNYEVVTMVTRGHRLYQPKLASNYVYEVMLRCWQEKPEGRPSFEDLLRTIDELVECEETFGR
Sequence of PDGFRA (human) (P16234 whole entry, looked up): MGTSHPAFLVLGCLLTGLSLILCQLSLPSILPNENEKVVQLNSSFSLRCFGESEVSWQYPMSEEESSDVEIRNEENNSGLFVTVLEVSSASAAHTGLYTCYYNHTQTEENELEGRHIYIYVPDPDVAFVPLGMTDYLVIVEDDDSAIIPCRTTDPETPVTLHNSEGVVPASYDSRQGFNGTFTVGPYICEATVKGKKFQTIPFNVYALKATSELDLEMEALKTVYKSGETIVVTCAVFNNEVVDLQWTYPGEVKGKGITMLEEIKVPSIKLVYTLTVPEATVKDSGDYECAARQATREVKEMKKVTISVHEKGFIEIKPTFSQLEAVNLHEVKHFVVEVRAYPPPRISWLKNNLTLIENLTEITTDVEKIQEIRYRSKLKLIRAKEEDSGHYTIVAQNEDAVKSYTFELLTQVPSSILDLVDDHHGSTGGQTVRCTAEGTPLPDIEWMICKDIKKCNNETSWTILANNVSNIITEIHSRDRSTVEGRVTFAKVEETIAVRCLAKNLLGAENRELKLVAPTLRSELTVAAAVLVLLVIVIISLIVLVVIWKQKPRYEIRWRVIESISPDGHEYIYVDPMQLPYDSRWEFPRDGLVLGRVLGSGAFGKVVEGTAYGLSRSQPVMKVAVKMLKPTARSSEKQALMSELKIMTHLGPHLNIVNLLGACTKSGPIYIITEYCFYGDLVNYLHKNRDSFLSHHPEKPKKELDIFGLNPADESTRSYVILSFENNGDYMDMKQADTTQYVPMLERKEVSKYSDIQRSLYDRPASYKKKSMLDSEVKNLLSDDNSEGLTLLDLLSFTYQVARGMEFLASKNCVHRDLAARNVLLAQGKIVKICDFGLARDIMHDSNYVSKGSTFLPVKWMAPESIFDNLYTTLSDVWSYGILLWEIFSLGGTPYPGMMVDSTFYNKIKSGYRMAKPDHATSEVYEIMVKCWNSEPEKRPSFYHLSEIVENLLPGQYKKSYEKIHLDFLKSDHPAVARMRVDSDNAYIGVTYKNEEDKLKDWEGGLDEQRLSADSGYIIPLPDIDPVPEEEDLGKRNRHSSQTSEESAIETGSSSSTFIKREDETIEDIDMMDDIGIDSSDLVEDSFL
Sequence of PAK4 (human) (O96013 whole entry, looked up): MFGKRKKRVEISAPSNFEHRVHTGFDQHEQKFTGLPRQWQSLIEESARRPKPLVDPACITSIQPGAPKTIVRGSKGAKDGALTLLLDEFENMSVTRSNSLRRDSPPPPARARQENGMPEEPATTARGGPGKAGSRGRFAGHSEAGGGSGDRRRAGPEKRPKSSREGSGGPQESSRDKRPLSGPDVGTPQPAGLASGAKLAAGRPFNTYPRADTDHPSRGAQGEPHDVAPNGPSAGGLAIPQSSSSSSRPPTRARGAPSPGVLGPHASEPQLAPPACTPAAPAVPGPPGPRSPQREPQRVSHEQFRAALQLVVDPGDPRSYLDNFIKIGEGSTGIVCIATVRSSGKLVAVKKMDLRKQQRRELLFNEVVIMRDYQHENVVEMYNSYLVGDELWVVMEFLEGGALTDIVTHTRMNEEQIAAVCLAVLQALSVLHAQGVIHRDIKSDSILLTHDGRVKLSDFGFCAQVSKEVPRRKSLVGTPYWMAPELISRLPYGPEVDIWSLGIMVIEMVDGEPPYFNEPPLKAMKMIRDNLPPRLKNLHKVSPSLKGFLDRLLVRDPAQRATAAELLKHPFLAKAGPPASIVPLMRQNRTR
Sequence of FYN (human) (P06241 whole entry, looked up): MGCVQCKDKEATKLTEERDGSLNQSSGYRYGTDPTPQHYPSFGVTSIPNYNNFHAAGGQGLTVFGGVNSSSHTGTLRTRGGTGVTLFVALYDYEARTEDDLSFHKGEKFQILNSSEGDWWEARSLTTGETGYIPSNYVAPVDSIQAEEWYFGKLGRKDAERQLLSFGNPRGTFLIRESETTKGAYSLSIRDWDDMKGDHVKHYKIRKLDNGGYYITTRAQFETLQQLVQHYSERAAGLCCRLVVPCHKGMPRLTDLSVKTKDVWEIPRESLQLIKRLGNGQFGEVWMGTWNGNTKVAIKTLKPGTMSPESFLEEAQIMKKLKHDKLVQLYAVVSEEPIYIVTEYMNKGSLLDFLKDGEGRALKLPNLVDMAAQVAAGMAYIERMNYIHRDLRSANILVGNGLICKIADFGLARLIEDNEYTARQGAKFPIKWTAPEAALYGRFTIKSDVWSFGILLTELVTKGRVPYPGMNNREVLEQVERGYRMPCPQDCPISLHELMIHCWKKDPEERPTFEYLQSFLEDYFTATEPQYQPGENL
Sequence of PRKCB1 (human) (P05771 whole entry, looked up): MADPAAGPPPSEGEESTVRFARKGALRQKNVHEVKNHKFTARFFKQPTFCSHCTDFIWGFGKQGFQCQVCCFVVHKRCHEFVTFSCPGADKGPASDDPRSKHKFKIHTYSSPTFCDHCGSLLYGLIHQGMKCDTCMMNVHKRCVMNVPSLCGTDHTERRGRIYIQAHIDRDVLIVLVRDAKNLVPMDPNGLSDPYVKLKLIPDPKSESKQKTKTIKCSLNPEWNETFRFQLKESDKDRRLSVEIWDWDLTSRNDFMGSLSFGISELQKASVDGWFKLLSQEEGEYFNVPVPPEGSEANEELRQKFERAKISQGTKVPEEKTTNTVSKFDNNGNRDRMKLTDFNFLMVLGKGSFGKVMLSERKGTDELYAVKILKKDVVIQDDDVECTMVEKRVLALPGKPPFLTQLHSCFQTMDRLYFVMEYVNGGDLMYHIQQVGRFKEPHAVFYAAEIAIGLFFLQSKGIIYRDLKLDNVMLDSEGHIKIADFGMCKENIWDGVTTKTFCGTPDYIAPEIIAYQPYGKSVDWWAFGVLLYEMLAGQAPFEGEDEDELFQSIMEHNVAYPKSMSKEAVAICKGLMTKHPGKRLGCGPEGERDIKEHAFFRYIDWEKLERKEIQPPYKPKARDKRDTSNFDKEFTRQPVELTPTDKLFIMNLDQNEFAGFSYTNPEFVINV
Sequence of JAK3 JH1 JH2 (human) (P52333 whole entry, looked up): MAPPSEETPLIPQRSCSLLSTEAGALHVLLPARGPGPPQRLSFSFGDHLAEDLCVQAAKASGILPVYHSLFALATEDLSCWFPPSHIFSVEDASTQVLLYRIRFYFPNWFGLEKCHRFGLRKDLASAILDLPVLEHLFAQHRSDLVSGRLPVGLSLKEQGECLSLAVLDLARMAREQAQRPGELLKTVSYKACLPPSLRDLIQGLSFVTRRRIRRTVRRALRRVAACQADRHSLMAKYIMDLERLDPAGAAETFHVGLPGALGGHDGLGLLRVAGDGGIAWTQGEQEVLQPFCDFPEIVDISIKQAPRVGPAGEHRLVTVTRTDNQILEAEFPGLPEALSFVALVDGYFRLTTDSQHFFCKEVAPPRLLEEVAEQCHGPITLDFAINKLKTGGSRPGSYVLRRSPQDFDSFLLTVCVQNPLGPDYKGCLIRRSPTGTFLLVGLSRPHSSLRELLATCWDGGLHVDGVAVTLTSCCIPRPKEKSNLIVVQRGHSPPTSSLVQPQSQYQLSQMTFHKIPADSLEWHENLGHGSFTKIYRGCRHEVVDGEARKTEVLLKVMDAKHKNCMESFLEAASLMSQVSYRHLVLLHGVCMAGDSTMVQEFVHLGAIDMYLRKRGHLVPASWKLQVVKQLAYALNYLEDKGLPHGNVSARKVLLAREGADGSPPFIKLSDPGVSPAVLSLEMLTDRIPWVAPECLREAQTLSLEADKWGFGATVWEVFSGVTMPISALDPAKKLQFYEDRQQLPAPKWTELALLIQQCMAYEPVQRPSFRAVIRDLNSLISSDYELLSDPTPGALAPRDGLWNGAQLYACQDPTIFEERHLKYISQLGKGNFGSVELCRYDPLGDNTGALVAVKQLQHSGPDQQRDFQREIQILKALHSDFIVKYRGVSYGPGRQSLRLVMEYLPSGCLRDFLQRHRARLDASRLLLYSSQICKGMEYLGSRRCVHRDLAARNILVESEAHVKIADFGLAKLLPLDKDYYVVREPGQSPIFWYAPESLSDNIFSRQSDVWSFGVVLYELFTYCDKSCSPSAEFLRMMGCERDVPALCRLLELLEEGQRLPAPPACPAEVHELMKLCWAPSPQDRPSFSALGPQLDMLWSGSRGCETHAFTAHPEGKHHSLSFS
Sequence of PHKG1 (human) (Q16816 whole entry, looked up): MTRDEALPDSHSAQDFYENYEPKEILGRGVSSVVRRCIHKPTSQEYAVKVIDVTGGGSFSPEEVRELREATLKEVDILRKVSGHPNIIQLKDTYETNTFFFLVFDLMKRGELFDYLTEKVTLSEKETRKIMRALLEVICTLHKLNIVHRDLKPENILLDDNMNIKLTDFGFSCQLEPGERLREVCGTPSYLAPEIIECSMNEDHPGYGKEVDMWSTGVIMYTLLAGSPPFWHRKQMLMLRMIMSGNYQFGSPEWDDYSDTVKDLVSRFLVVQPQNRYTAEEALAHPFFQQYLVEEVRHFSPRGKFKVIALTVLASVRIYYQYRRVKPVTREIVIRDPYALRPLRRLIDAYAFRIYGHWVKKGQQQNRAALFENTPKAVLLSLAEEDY

## Cc1cc2ncc(-c3ccccc3)nc2cc1C
ACVR1 (human)
  residual activity: 91.8%
AKT1 (human)
  residual activity: 101%
AURKB (human)
  residual activity: 85.4%
CDC42BPB (human)
  residual activity: 101%
CDK4 CCND1 (human)
  residual activity: 101%
CDK4 CCND3 (human)
  residual activity: 94.6%
CDK6 CCND1 (human)
  residual activity: 87.1%
CHEK2 (human)
  residual activity: 96.8%
CLK3 (human)
  residual activity: 92.8%
CSNK1D (human)
  residual activity: 90.7%
DAPK1 (human)
  residual activity: 88.4%
DCLK2 (human)
  residual activity: 100%
EPHA2 (human)
  residual activity: 103%
EPHB3 (human)
  residual activity: 98.4%
EPHB4 (human)
  residual activity: 95.6%
ERBB2 (human)
  residual activity: 97.4%
FER (human)
  residual activity: 91%
FYN (human)
  residual activity: 99.4%
JAK3 JH1 JH2 (human)
  residual activity: 101%
KDR (human)
  residual activity: 99.1%
MAP3K14 (human)
  residual activity: 112%
MAP3K5 (human)
  residual activity: 107%
MAPK11 (human)
  residual activity: 96.8%
MAPK12 (human)
  residual activity: 87.3%
MAPK14 (human)
  residual activity: 103%
MERTK (human)
  residual activity: 81.4%
MST1R (human)
  residual activity: 99.4%
NEK2 (human)
  residual activity: 75.7%
PAK4 (human)
  residual activity: 105%
PDGFRA (human)
  residual activity: 95.4%
PHKG1 (human)
  residual activity: 97.4%
PIM1 (human)
  residual activity: 101%
PLK1 (human)
  residual activity: 101%
PRKCB1 (human)
  residual activity: 103%
RIPK2 (human)
  residual activity: 98.3%
ROCK1 (human)
  residual activity: 100%
STK17A (human)
  residual activity: 80%
TBK1 (human)
  residual activity: 93.8%
TEC (human)
  residual activity: 98.1%
TGFBR2 (human)
  residual activity: 130%
TXK (human)
  residual activity: 99.5%
[1]
  residual activity: 97.6%

## CCN1/C(=C/C(C)=O)Sc2ccc(OC)cc21
ACVR1 (human)
  residual activity: 88.1%
AKT1 (human)
  residual activity: 90.1%
AURKB (human)
  residual activity: 87.9%
CDC42BPB (human)
  residual activity: 114%
CDK4 CCND1 (human)
  residual activity: 92.1%
CDK4 CCND3 (human)
  residual activity: 97.4%
CDK6 CCND1 (human)
  residual activity: 108%
CHEK2 (human)
  residual activity: 104%
CLK3 (human)
  residual activity: 95%
CSNK1D (human)
  residual activity: 54.2%
DAPK1 (human)
  residual activity: 109%
DCLK2 (human)
  residual activity: 97.9%
EPHA2 (human)
  residual activity: 99.1%
EPHB3 (human)
  residual activity: 90.3%
EPHB4 (human)
  residual activity: 92.4%
ERBB2 (human)
  residual activity: 99.9%
FER (human)
  residual activity: 87.9%
FYN (human)
  residual activity: 99.1%
JAK3 JH1 JH2 (human)
  residual activity: 103%
KDR (human)
  residual activity: 104%
MAP3K14 (human)
  residual activity: 86.1%
MAP3K5 (human)
  residual activity: 118%
MAPK11 (human)
  residual activity: 84.5%
MAPK12 (human)
  residual activity: 99.8%
MAPK14 (human)
  residual activity: 95.4%
MERTK (human)
  residual activity: 88.6%
MST1R (human)
  residual activity: 94.5%
NEK2 (human)
  residual activity: 97.6%
PAK4 (human)
  residual activity: 108%
PDGFRA (human)
  residual activity: 105%
PHKG1 (human)
  residual activity: 89.5%
PIM1 (human)
  residual activity: 17.9%
PLK1 (human)
  residual activity: 97%
PRKCB1 (human)
  residual activity: 99.4%
RIPK2 (human)
  residual activity: 86.3%
ROCK1 (human)
  residual activity: 99.3%
STK17A (human)
  residual activity: 99.3%
TBK1 (human)
  residual activity: 94.5%
TEC (human)
  residual activity: 116%
TGFBR2 (human)
  residual activity: 78.5%
TXK (human)
  residual activity: 100%
[1]
  residual activity: 113%

Reference: the kinase profiling compilation of Christmann-Franck et al. (2016)
